Assay results: ChEMBL document CHEMBL3885861, “Open TG-GATES”

Organism: Rattus norvegicus
Test: Open TG-GATES - Regimen: Single
Assay type: toxicity, organism-based, Sprague-Dawley
Parameters: regimen Single, gender Male, age 6 weeks
Conditions: in vivo, po, 15 mg/kg, route gavage, dose level Low; for APTT / Bas / Eos / Fbg / Hb / Ht / Lym / MCH / MCHC / MCV / Mono / Neu / PT / Plat / RBC / Ret / WBC: tissue Blood; for KIDNEY_L / KIDNEY_R / KIDNEY_TOTAL: tissue Kidney; for LIVER: tissue Liver; for A/G / ALP / ALT / AST / BUN / CRE / Ca / Cl / DBIL / GLC / IP / K / LDH / Na / PL / RALB / TBIL / TC / TG / TP / gamma-GTP: tissue Plasma

Work on `O=c1ccc2ccccc2o1` [COUMARIN] yielded a TERMINAL_BW (3 h) of 178.4 g, an APTT (3 h) of 16.5 s and a Bas (3 h) of 0%. It also gave an Eos (3 h) of 1%, a Fbg (3 h) of 205.2 mg/dL and a Hb (3 h) of 13.6 g/dL. The Ht (3 h) was 40.8%, the Lym (3 h) was 82.2% and the MCH (3 h) was 21.3 pg. For the same compound, the MCHC (3 h) was 33.4%, the MCV (3 h) was 63.7 fL and the Mono (3 h) was 3.8%. The Neu (3 h) was 13.4%, the PT (3 h) was 12.4 s and the Plat (3 h) was 97.1 x10_4/uL. The RBC (3 h) was 640 x10_4/ul, the Ret (3 h) was 8.2% and the WBC (3 h) was 97 x10_2/uL. The KIDNEY_L (3 h) was 0.8 g, the KIDNEY_R (3 h) was 0.8 g and the KIDNEY_TOTAL (3 h) was 1.7 g. It also gave an LIVER (3 h) of 8 g, an A/G (3 h) of 2 and an ALP (3 h) of 1069.4 IU/L. For the same compound, the ALT (3 h) was 41.6 IU/L, the AST (3 h) was 71.8 IU/L and the BUN (3 h) was 10.2 mg/dL. For the same compound, the CRE (3 h) was 0.4 mg/dL, the Ca (3 h) was 10.6 mg/dL and the Cl (3 h) was 105.6 meq/L. The DBIL (3 h) was 0.006 mg/dL, the GLC (3 h) was 182.4 mg/dL and the IP (3 h) was 10.4 mg/dL. For the same compound, the K (3 h) was 4.7 meq/L, the LDH (3 h) was 84.8 IU/L and the Na (3 h) was 138 meq/L. The PL (3 h) was 161.6 mg/dL, the RALB (3 h) was 3.9 g/dL and the TBIL (3 h) was 0.4 mg/dL. For the same compound, the TC (3 h) was 86 mg/dL, the TG (3 h) was 115 mg/dL and the TP (3 h) was 5.9 g/dL. For the same compound, the gamma-GTP (3 h) was 1.4 IU/L, the TERMINAL_BW (6 h) was 180.2 g and the APTT (6 h) was 16.4 s. For the same compound, the Bas (6 h) was 0%, the Eos (6 h) was 1.2% and the Fbg (6 h) was 189.2 mg/dL. The Hb (6 h) was 13.5 g/dL, the Ht (6 h) was 40.5% and the Lym (6 h) was 76%. The MCH (6 h) was 21.9 pg, the MCHC (6 h) was 33.2% and the MCV (6 h) was 65.9 fL. For the same compound, the Mono (6 h) was 5%, the Neu (6 h) was 18.4% and the PT (6 h) was 12.5 s. It also gave a Plat (6 h) of 109.6 x10_4/uL, an RBC (6 h) of 614.6 x10_4/ul and a Ret (6 h) of 9.4%. For the same compound, the WBC (6 h) was 95.4 x10_2/uL, the KIDNEY_L (6 h) was 0.8 g and the KIDNEY_R (6 h) was 0.8 g. For the same compound, the KIDNEY_TOTAL (6 h) was 1.7 g, the LIVER (6 h) was 8 g and the A/G (6 h) was 2.1. It also gave an ALP (6 h) of 872 IU/L, an ALT (6 h) of 33.6 IU/L and an AST (6 h) of 65 IU/L. It also gave a BUN (6 h) of 9 mg/dL, a CRE (6 h) of 0.4 mg/dL and a Ca (6 h) of 10.3 mg/dL. The Cl (6 h) was 107.2 meq/L, the DBIL (6 h) was 0.004 mg/dL and the GLC (6 h) was 189.6 mg/dL. For the same compound, the IP (6 h) was 10.4 mg/dL, the K (6 h) was 5.2 meq/L and the LDH (6 h) was 88 IU/L. For the same compound, the Na (6 h) was 138 meq/L, the PL (6 h) was 136 mg/dL and the RALB (6 h) was 3.7 g/dL. For the same compound, the TBIL (6 h) was 0.3 mg/dL, the TC (6 h) was 75.2 mg/dL and the TG (6 h) was 63 mg/dL. It also gave a TP (6 h) of 5.5 g/dL, a gamma-GTP (6 h) of 1.2 IU/L and a TERMINAL_BW (9 h) of 177.8 g. For the same compound, the APTT (9 h) was 16.1 s, the Bas (9 h) was 0% and the Eos (9 h) was 0.8%. It also gave a Fbg (9 h) of 198.2 mg/dL, a Hb (9 h) of 13.2 g/dL and a Ht (9 h) of 40.1%. The Lym (9 h) was 78.2%, the MCH (9 h) was 22 pg and the MCHC (9 h) was 33%. It also gave an MCV (9 h) of 66.6 fL, a Mono (9 h) of 6.4% and a Neu (9 h) of 14.6%. For the same compound, the PT (9 h) was 12.3 s, the Plat (9 h) was 103 x10_4/uL and the RBC (9 h) was 602 x10_4/ul. For the same compound, the Ret (9 h) was 8.7%, the WBC (9 h) was 85.8 x10_2/uL and the KIDNEY_L (9 h) was 0.8 g. For the same compound, the KIDNEY_R (9 h) was 0.9 g, the KIDNEY_TOTAL (9 h) was 1.7 g and the LIVER (9 h) was 7.2 g. The A/G (9 h) was 2.3, the ALP (9 h) was 849 IU/L and the ALT (9 h) was 30.6 IU/L. The AST (9 h) was 62 IU/L, the BUN (9 h) was 9.8 mg/dL and the CRE (9 h) was 0.5 mg/dL. The Ca (9 h) was 10.6 mg/dL, the Cl (9 h) was 106.8 meq/L and the DBIL (9 h) was 0.03 mg/dL. The GLC (9 h) was 195 mg/dL, the IP (9 h) was 11.6 mg/dL and the K (9 h) was 5.1 meq/L. For the same compound, the LDH (9 h) was 102 IU/L, the Na (9 h) was 139.4 meq/L and the PL (9 h) was 141 mg/dL. For the same compound, the RALB (9 h) was 3.8 g/dL, the TBIL (9 h) was 0.3 mg/dL and the TC (9 h) was 81.4 mg/dL. It also gave a TG (9 h) of 37.4 mg/dL, a TP (9 h) of 5.5 g/dL and a gamma-GTP (9 h) of 1.2 IU/L. The TERMINAL_BW (24 h) was 189.8 g, the APTT (24 h) was 15.7 s and the Bas (24 h) was 0%. The Eos (24 h) was 1%, the Fbg (24 h) was 208.2 mg/dL and the Hb (24 h) was 13.2 g/dL. For the same compound, the Ht (24 h) was 39.7%, the Lym (24 h) was 74.2% and the MCH (24 h) was 22.3 pg. The MCHC (24 h) was 33.3%, the MCV (24 h) was 66.9 fL and the Mono (24 h) was 10.6%. The Neu (24 h) was 14.2%, the PT (24 h) was 12.2 s and the Plat (24 h) was 102.6 x10_4/uL. It also gave an RBC (24 h) of 594.2 x10_4/ul, a Ret (24 h) of 8.2% and a WBC (24 h) of 102.3 x10_2/uL. It also gave a KIDNEY_L (24 h) of 0.9 g, a KIDNEY_R (24 h) of 0.9 g and a KIDNEY_TOTAL (24 h) of 1.8 g. It also gave an LIVER (24 h) of 9.3 g, an A/G (24 h) of 2.1 and an ALP (24 h) of 972.2 IU/L. It also gave an ALT (24 h) of 43 IU/L, an AST (24 h) of 68.2 IU/L and a BUN (24 h) of 14 mg/dL. It also gave a CRE (24 h) of 0.5 mg/dL, a Ca (24 h) of 10.9 mg/dL and a Cl (24 h) of 106.2 meq/L. For the same compound, the DBIL (24 h) was 0.01 mg/dL, the GLC (24 h) was 190.8 mg/dL and the IP (24 h) was 8.4 mg/dL. The K (24 h) was 5.2 meq/L, the LDH (24 h) was 97.4 IU/L and the Na (24 h) was 137.8 meq/L. For the same compound, the PL (24 h) was 140.4 mg/dL, the RALB (24 h) was 3.8 g/dL and the TBIL (24 h) was 0.3 mg/dL. The TC (24 h) was 76.8 mg/dL, the TG (24 h) was 77.2 mg/dL and the TP (24 h) was 5.7 g/dL. For the same compound, the gamma-GTP (24 h) was 1 IU/L.
